{
  "source": "patent US8691945B2",
  "about": "“Antimicrobial peptides” (Singapore Health Services Pte Ltd., priority 2006, dated 2014)",
  "key": {"[1]": {"experiment": "Molecular hydrophobicity by HPLC-MS retention time, full-length analogs", "type": "physicochemical", "parameters": "unit: min", "conditions": "average of three tries, one value per charged fragment", "method": "Molecular hydrophobicity of peptides was measured by HPLC-MS at the same experimental conditions, e.g., the same peptide concentration (500 or 100 μg/ml), loading (5 μl) and flow rate of 0.2 ml/min in the same gradient 18-38% of eluant A in 32 min and relatively compared in term of retention time (Rt) of product peak.\nIn comparison with native hBD3, this series of linear analogs of hBD3 with full-length and 11 net positive charge are structurally homogenous as they are designed and synthesized only by uniform replacement of six bridging cysteine residues in hBD3 with other six residues with different hydrophobicity, e.g., A, S, C(Acm), F, Y and W. These linear analogs provide a well-defined model for testing the effect of overall hydrophobicity, second structure and linearity/or constraint imposed by three disulfide bridges on antibacterial, cytotoxicity and hemolytic activities. We have measured the relative molecular hydrophobicity by HPLC-MS in term of retention time (tR) at 500 ug/ml and 100 ug/ml (Table 2) and overall hydrophobicity were calculated based on the hydrophobicity scale of Wilmley and White and Hopp-Woods Scale, respectively. The change trend of overall hydrophobicity, which is calculated based on two different scale, generally fits well, and the HPLC result matches the calculations very well. The general order for the relative molecular hydrophobicity of peptides is as following: W6>F6>Y6>native hBD3>A6>S6>C(Acm)6. […] In the following sections, we will discuss the effect of overall hydrophobicity of peptide on biological activities."}, "[2]": {"test_system": "Staphylococcus aureus ATCC 25923", "experiment": "Antimicrobial assay, bacteria growth in liquid broth with serially diluted peptides", "type": "cell-based", "conditions": "Staph aureus, ATCC25923; for vLD50: concentration of peptide at which 50% of the viable cells are killed", "method": "(§1) The bacteria assayed included Escherichia coli ATCC 25922, Staphylococcus aureus ATCC 25923, Pseudomonas aeruginosa ATCC 27853, Bacillus cereus NCTC 2599. Sterile flat-bottom, 96-well tissue culture plates (92096, TPP) was used for assay. The inner surface of microplate cover was treated with 0.05% Triton X-100 in 20% ethanol to prevent condensation of water droplets. Growth kinetics in 96-well microplates was monitored (as turbidity) with the Tecan Genios Plus microplate reader using software Magellan v5.03 and 620-nm filter. Seed culture was monitored on Pharmacia Biotech Ultrospec 2000 UV/Visible spectrophotometer using 600-nm wavelength. Antibacterial activities of the analogs and wild-type hBD3 were determined for E. coli, B. cereus, S. aureus and P. aeruginosa by measuring bacteria growth in liquid broth in the presence of the serially diluted peptides. The LD50 is the concentration of peptide at which 50% of the viable cells are killed.\n(§2) The bacteria were grown to mid-logarithmic phase in Mueller-Hinton Broth (MHB) from overnight plate culture. The cell suspension was diluted to OD 0.1 (600 nm, Pharmacia Biotech Ultropec 2000 UV/Visible spectrophotometer) in mixture of 10 mM Pot Phos buffer/MHB (equal volume (PMH). This cell suspension gave a concentration of 10^7 CFU/ml. Colony count was done for confirmation. A 10-fold dilution series of this suspension ranging from 10^7 to 10^1 CFU/ml was made in PMH (in sextuplicate for Staphylococcus aureus ATCC 25923 and Bacillus cereus NCTC 2599; in quadruplicate for Escherichia coli ATCC 25922 and in triplicate for Pseudomonas aeruginosa ATCC 27853). The final volume per well was 200 ul. For negative control well, 200 ul of uninoculated PMH was added.\n(§3) LD50, LD90, LD99 and LD99.9 of wild-type hBD3 and its linear analogs were determined against two Gram-negative (E. Coli and P. aeruginosa) and two Gram-positive (B. cereus, S. aureus) (Table 3). See also FIGS. 7(A, B, C and D)."}, "[3]": {"test_system": "Pseudomonas aeruginosa ATCC 27853", "experiment": "Antimicrobial assay, bacteria growth in liquid broth with serially diluted peptides", "type": "cell-based", "conditions": "P aeruginosa, ATCC27853; for vLD50: concentration of peptide at which 50% of the viable cells are killed", "method": "as §1, §2, §3"}, "[4]": {"test_system": "Bacillus cereus NCTC 2599", "experiment": "Antimicrobial assay, bacteria growth in liquid broth with serially diluted peptides", "type": "cell-based", "conditions": "B cereus, NCTC2599; for vLD50: concentration of peptide at which 50% of the viable cells are killed", "method": "as §1, §2, §3"}, "[5]": {"test_system": "Escherichia coli ATCC 25922", "experiment": "Antimicrobial assay, bacteria growth in liquid broth with serially diluted peptides", "type": "cell-based", "conditions": "E coli, ATCC25922; for vLD50: concentration of peptide at which 50% of the viable cells are killed", "method": "as §1, §2, §3"}, "[6]": {"test_system": "E. coli, B. cereus, S. aureus and P. aeruginosa", "experiment": "Antimicrobial assay, statements pooled over the four pathogens", "type": "cell-based", "conditions": "in comparison with hBD3", "method": "as §1\nThe bacteria were grown to mid-logarithmic phase in Mueller-Hinton Broth (MHB) from overnight plate culture. […]\nLD50, LD90, LD99 and LD99.9 of wild-type hBD3 and its linear analogs were determined against two Gram-negative (E. Coli and P. aeruginosa) and two Gram-positive (B. cereus, S. aureus) (Table 3). […]"}, "[7]": {"experiment": "Molecular hydrophobicity by RP-HPLC-MS retention time, C-terminus analogs", "type": "physicochemical", "conditions": "1 mg/ml; gradient 2-15.5% in 30 mins then 15.5-31% in 3 mins of eluent B (ACN)", "method": "The overall molecular hydrophobicity of the C-terminus hBD3 analogs were measured by RP-HPLC-MS in terms of retention time at 1 mg/ml (Table 4 and FIG. 14). RP-HPLC is an approach that is commonly employed for such comparisons of peptides or amino acid side chains among antibacterial peptides. Since the stationary phase of C18-modified silica is hydrophobic and the mobile phase (water-acetonitrile) is hydrophilic, longer retention times should be correlated with higher hydrophobicity. The measured order for the molecular hydrophobicity of the peptides is as follows: W2>F2>L2>I2>Y2>V2>C2>H2."}},
  "note": "Where no end group is shown, it is not given here. The star is where a group is joined. Acm = CC(=O)NC*",
  "data": [
    {"substance": "GIINTLQKYYC(Acm)RVRGGRC(Acm)AVLSC(Acm)LPKEEQIGKC(Acm)STRGRKC(Acm)C(Acm)RRKK-OH [C(Acm)6, GIINTLQKYY C(Acm)6RVRGGR C(Acm)6AVLS C(Acm)6LPKEEQIGK C(Acm)6STRGRK C(Acm)6C(Acm)6RRKK]", "values": [
      {"measurement": "Relative hydrophobicity in term of retention time (Rt) in HPLC-MS, Average", "setting": "[1]; 100 ug/ml", "result": 20.94},
      {"measurement": "Relative hydrophobicity in term of retention time (Rt) in HPLC-MS, Average", "setting": "[1]; 500 ug/ml, fragment m/z 799.3", "result": 20.12},
      {"measurement": "Relative hydrophobicity in term of retention time (Rt) in HPLC-MS, Average", "setting": "[1]; 500 ug/ml, fragment m/z 932.4", "result": 20.15},
      {"measurement": "Relative hydrophobicity in term of retention time (Rt) in HPLC-MS, Average", "setting": "[1]; 500 ug/ml, fragment m/z 1118.8", "result": 20.11},
      {"measurement": "vLD90", "setting": "[2]", "result": 46.8, "unit": "µg/mL"},
      {"measurement": "vLD99", "setting": "[2]", "result": 91, "unit": "µg/mL"},
      {"measurement": "vLD99.9", "setting": "[2]", "result": ">100", "unit": "µg/mL"},
      {"measurement": "vLD50", "setting": "[2]", "result": 25, "unit": "µg/mL"},
      {"measurement": "vLD90", "setting": "[3]", "result": 21.7, "unit": "µg/mL"},
      {"measurement": "vLD99", "setting": "[3]", "result": 24.7, "unit": "µg/mL"},
      {"measurement": "vLD99.9", "setting": "[3]", "result": 25, "unit": "µg/mL"},
      {"measurement": "vLD50", "setting": "[3]", "result": 11.2, "unit": "µg/mL"},
      {"measurement": "vLD90", "setting": "[4]", "result": 28.3, "unit": "µg/mL"},
      {"measurement": "vLD99", "setting": "[4]", "result": 47.8, "unit": "µg/mL"},
      {"measurement": "vLD99.9", "setting": "[4]", "result": 49.8, "unit": "µg/mL"},
      {"measurement": "vLD50", "setting": "[4]", "result": 19.6, "unit": "µg/mL"},
      {"measurement": "vLD90", "setting": "[5]", "result": 23.8, "unit": "µg/mL"},
      {"measurement": "vLD99", "setting": "[5]", "result": 24.9, "unit": "µg/mL"},
      {"measurement": "vLD99.9", "setting": "[5]", "result": 42, "unit": "µg/mL"},
      {"measurement": "vLD50", "setting": "[5]", "result": 18.7, "unit": "µg/mL"},
      {"measurement": "antibacterial potency in words", "setting": "[6]", "result": "relatively less potency"}
    ]},
    {"substance": "GIINTLQKYYCRVRGGRCAVLSCLPKEEQIGKCSTRGRKCCRRKK (disulfide (positions not given here); also: three disulfide bonds, pairing not given here; listed as Homo sapiens) [whbd3, wild type human β-defensin 3 with three disulfide bonds, used as control, reference compound]", "values": [
      {"measurement": "Relative hydrophobicity in term of retention time (Rt) in HPLC-MS, Average", "setting": "[1]; 100 ug/ml, listed as Wild-type hBD3, fragment m/z 860.2", "result": 24.28},
      {"measurement": "Relative hydrophobicity in term of retention time (Rt) in HPLC-MS, Average", "setting": "[1]; 100 ug/ml, listed as Wild-type hBD3, fragment m/z 1032.2", "result": 24.29},
      {"measurement": "Relative hydrophobicity in term of retention time (Rt) in HPLC-MS, Average", "setting": "[1]; 500 ug/ml, listed as Wild-type hBD3, fragment m/z 860.2", "result": 23.24},
      {"measurement": "Relative hydrophobicity in term of retention time (Rt) in HPLC-MS, Average", "setting": "[1]; 500 ug/ml, listed as Wild-type hBD3, fragment m/z 1032.2", "result": 23.28},
      {"measurement": "vLD90", "setting": "[2]", "result": 10.7, "unit": "µg/mL"},
      {"measurement": "vLD99", "setting": "[2]", "result": 12.2, "unit": "µg/mL"},
      {"measurement": "vLD99.9", "setting": "[2]", "result": 12.5, "unit": "µg/mL"},
      {"measurement": "vLD50", "setting": "[2]", "result": 5.5, "unit": "µg/mL"},
      {"measurement": "vLD90", "setting": "[3]", "result": 5.7, "unit": "µg/mL"},
      {"measurement": "vLD99", "setting": "[3]", "result": 11.4, "unit": "µg/mL"},
      {"measurement": "vLD99.9", "setting": "[3]", "result": 12.4, "unit": "µg/mL"},
      {"measurement": "vLD50", "setting": "[3]", "result": 2.7, "unit": "µg/mL"},
      {"measurement": "vLD90", "setting": "[4]", "result": 5.8, "unit": "µg/mL"},
      {"measurement": "vLD99", "setting": "[4]", "result": 6.2, "unit": "µg/mL"},
      {"measurement": "vLD99.9", "setting": "[4]", "result": 6.2, "unit": "µg/mL"},
      {"measurement": "vLD50", "setting": "[4]", "result": 3.9, "unit": "µg/mL"},
      {"measurement": "vLD90", "setting": "[5]", "result": 11.8, "unit": "µg/mL"},
      {"measurement": "vLD99", "setting": "[5]", "result": 12.4, "unit": "µg/mL"},
      {"measurement": "vLD99.9", "setting": "[5]", "result": 12.5, "unit": "µg/mL"},
      {"measurement": "vLD50", "setting": "[5]", "result": 9.3, "unit": "µg/mL"}
    ]},
    {"substance": "RGRKC(Acm)C(Acm)RRKK [Peptide C2, 10-residue C-terminus fragment analog of hBD3]", "values": [
      {"measurement": "Overall hydrophobicity in terms of ACN % of peak", "setting": "[7]", "result": 9.67, "unit": "%"},
      {"measurement": "Overall hydrophobicity in terms of Retention time (UV peak)", "setting": "[7]", "result": 17.05, "unit": "min"}
    ]},
    {"substance": "RGRKFFRRKK (10 aa hBD3 derived peptide (C terminus), C replaced with F) [Peptide F2, 10-residue C-terminus fragment analog of hBD3]", "values": [
      {"measurement": "Overall hydrophobicity in terms of ACN % of peak", "setting": "[7]", "result": 14.78, "unit": "%"},
      {"measurement": "Overall hydrophobicity in terms of Retention time (UV peak)", "setting": "[7]", "result": 28.41, "unit": "min"}
    ]},
    {"substance": "RGRKHHRRKK (10 aa hBD3 derived peptide (C terminus), C replaced with H) [Peptide H2, 10-residue C-terminus fragment analog of hBD3]", "values": [
      {"measurement": "Overall hydrophobicity in terms of ACN % of peak", "setting": "[7]", "result": 7.15, "unit": "%"},
      {"measurement": "Overall hydrophobicity in terms of Retention time (UV peak)", "setting": "[7]", "result": 11.45, "unit": "min"}
    ]},
    {"substance": "RGRKIIRRKK (10 aa hBD3 derived peptide (C terminus), C replaced with I) [Peptide I2, 10-residue C-terminus fragment analog of hBD3]", "values": [
      {"measurement": "Overall hydrophobicity in terms of ACN % of peak", "setting": "[7]", "result": 11.96, "unit": "%"},
      {"measurement": "Overall hydrophobicity in terms of Retention time (UV peak)", "setting": "[7]", "result": 22.13, "unit": "min"}
    ]}
  ]
}
